Source: patent publication US12098162B2, “Neutral glycosylated amides and dianionic glucuronidated acids as stabilizers for biological molecules” (Extremochem, LDA, priority 2017, dated 2024)

Legend:
Type in all cases: physicochemical
ubiquitin = target: T1, ubiquitin (Homo sapiens, UniProt P0CG47); assay: Stabilization assay of ubiquitin measured by DSF; details: 0.25 M compound; phosphate buffer pH 12; Tm without compounds 72 °C; FIG. 4
T1 construct: Stabilization Assay of Ubiquitin Measured by DSF
Description: (§1) Differential Scanning Fluorimetry (DSF) Assay
(§2) The protein melting temperature (Tm) determination was performed by monitoring protein unfolding with the fluoroprobe SYPRO Orange dye (Molecular Probes), which although completely quenched in aqueous environment, emits fluorescence upon binding to protein hydrophobic patches. Such increase in fluorescence can be measured as a function of temperature. The thermal shift assay was performed on an iCycle iQ5 Real Time PCR Detection System (Bio-Rad), equipped with a charge-coupled device (CCD) camera and a Cy3 filter with excitation and emission wavelengths of 490 and 575 nm, respectively. This equipment can simultaneously detect the fluorescence changes in 96-well plates (low profile plate, Bio-Rad) and thus can be used for parallel thermal stability assays. […] The plates are subsequently heated from 20 to 90° C. with stepwise increments of 1° C. with 60 seconds equilibration time, followed by the fluorescence read out. Fluorescence intensities versus temperature are used to calculate the protein melting temperature (Tm) by determining the first derivative (d(Rfu)/dT) and extract the exact transition inflection point. Delta TM values (DTM) for the various conditions were calculated by subtracting the TM value obtained for the reference from the TM value obtained for each condition. […]

lysozyme = lysozyme (Gallus gallus, UniProt P00698); assay: Stabilization of lysozyme measured by DSF (melting temperature); details: 0.25 M stabiliser, FIG. 1; for stabilization effect on lysozyme (increase of melting temperature Tm): 25 mM sodium acetate buffer pH 3.6 and phosphate buffer pH 12, Tm without compounds 71 °C (pH 3.6) and 55 °C (pH 12); for stabilization effect on lysozyme at pH 12 compared with pH 3.6: DSF
lysozyme, sequence (P00698 19-147): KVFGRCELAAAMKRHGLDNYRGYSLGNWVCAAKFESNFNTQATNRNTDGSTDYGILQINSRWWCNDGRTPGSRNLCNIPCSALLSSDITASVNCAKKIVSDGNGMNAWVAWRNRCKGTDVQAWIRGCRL
Description: as §1
(§3) The protein melting temperature (Tm) determination was performed by monitoring protein unfolding with the fluoroprobe SYPRO Orange dye (Molecular Probes), which although completely quenched in aqueous environment, emits fluorescence upon binding to protein hydrophobic patches. Such increase in fluorescence can be measured as a function of temperature. The thermal shift assay was performed on an iCycle iQ5 Real Time PCR Detection System (Bio-Rad), equipped with a charge-coupled device (CCD) camera and a Cy3 filter with excitation and emission wavelengths of 490 and 575 nm, respectively. This equipment can simultaneously detect the fluorescence changes in 96-well plates (low profile plate, Bio-Rad) and thus can be used for parallel thermal stability assays. The 96-well plates are sealed with optical quality sealing tape (Bio-Rad) and centrifuged at 2500 g for 1 minutes immediately before the assay to remove possible air bubbles. The plates are subsequently heated from 20 to 90° C. with stepwise increments of 1° C. with 60 seconds equilibration time, followed by the fluorescence read out. Fluorescence intensities versus temperature are used to calculate the protein melting temperature (Tm) by determining the first derivative (d(Rfu)/dT) and extract the exact transition inflection point. Delta TM values (DTM) for the various conditions were calculated by subtracting the TM value obtained for the reference from the TM value obtained for each condition.
(§4) In a typical assay with a total volume of 20 μL, a protein concentration from 0.1-0.5 mg/mL and a dye concentration of 5 fold were used to guarantee the best signal to noise ratio. The protein stock solutions were prepared in their corresponding buffers before performing the DSF experiments. Stabiliser solutions and dyes were prepared according to each assay specific conditions. The assay was prepared by adding 1-2 μL of protein to 8-9 μL of dye buffer solution, and 10 μL of compound solution. Controls were prepared by replacing the volume of stabilisers by the correspondent buffer.
The stabilization of lysozyme in the presence of several stabilisers at 0.25 M concentration and at pH 3.6 and pH 12 was studied using DSF (FIG. 1). […] The stabilization effect was higher for GBA, GaGlyA, b-GGlyA, b-GaLA, b-GaGlyA, and b-GaBA at the higher pH (pH 12). All new compounds are able to stabilise lysozyme under both stress conditions.

Factor IX = Factor IX (Homo sapiens, UniProt P00740); assay: Stabilization assay of Factor IX measured by DSF; details: 0.25 M stabiliser in water, pH 7-8; Tm without compounds 50 °C; FIG. 5
Factor IX, sequence (P00740 47-461): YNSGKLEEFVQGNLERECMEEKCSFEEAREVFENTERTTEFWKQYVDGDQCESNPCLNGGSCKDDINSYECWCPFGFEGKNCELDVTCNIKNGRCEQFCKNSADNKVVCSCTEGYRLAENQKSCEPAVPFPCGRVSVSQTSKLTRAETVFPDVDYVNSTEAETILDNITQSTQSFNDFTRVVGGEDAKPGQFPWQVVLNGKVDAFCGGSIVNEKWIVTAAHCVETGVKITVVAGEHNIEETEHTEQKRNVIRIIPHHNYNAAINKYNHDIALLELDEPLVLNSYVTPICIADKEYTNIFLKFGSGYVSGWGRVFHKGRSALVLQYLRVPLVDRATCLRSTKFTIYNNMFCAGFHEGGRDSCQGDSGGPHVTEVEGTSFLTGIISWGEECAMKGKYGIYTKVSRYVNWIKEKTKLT
Description: as §1, §3, §4
Stabilization of Factor IX using neutral amide-containing glycosides of the present invention were measured using DSF. The new stabilizers increased the melting temperature of factor IX at a 0.25 M concentration in water and at pH 7-8, as shown in FIG. 5.

adalimumab (Humira®) [1] = assay: Stabilization assay of adalimumab (Humira) measured by HPSEC under low pH stress; details: GaGlyA 0.5 M; Humira 0.4 mg/ml; room temperature, no thermal stress; compared with no stabiliser; FIG. 2
Description: High Performance Size Exclusion Chromatography (HPSEC) Assay
HP-SEC was performed with Waters 515 pump, a Waters 2487 Dual Absorbance Detector (Waters, USA) and a Rheodyme 77251 injector (Waters, USA). A TSK Gel G3000 SWXL column (300 mm×7.8 mm) (Tosoh Biosep, Germany) was used. The volume of injection was adjusted according to each sample concentration in order to inject […] sample of biological molecule, and separation was performed at a flow rate of 1.0 mL/min or adjusted as appropriate. A suitable running buffer was used, e.g., 100 mM sodium sulfate, 100 mM sodium phosphate dibasic pH 6.8 for Humira® samples. UV detection was performed at a wavelength suitable to detect the biological molecule, e.g., 280 nm. No thermal stress was applied and assay was performed at room temperature. Absorbance was measured to determine the concentration of biological molecule and thus determine amount of degredation of the biological molecule.
A pH titration of adalimumab (Humira®) to pH 3.2 was performed either in the absence and presence of stabiliser GaGlyA 0.5 M, and the results were analysed by HPSEC (FIG. 2). […] Absorbance was measured to determine the concentration of biological molecule and thus determine amount of degredation of the biological molecule. […]

adalimumab (Humira®) [2] = assay: Stabilization assay of adalimumab measured by DSF; details: 0.25 M stabiliser; phosphate buffer pH 12; Tm without compounds 41 °C; FIG. 3
Description: as §1, §2

| Compound | increase of the melting temperature of ubiquitin (ubiquitin) [°C] | stabilization effect on lysozyme (increase of melting temperature Tm) (lysozyme) | stabilization effect on lysozyme at pH 12 compared with pH 3.6 (lysozyme) | stabilization of Factor IX (increase of melting temperature) (Factor IX) | degradation of adalimumab after 12 hours at pH 3.2 (HPSEC) (adalimumab (Humira®) [1]) | increase of the melting temperature of adalimumab (adalimumab (Humira®) [2]) [°C] |
| --- | --- | --- | --- | --- | --- | --- |
| CC(CC(N)=O)OC1O[C@H](CO)[C@@H](O)[C@H](O)[C@H]1O (stereo partly drawn) [GBA, 3-O-(α/β-D-glucopyranosyl)-3-hydroxybutyramide] | 9 | showed a stabilization effect | higher | showed stabilization of factor IX |  |  |
| NC(=O)COC1O[C@H](CO)[C@@H](O)[C@H](O)[C@H]1O (stereo partly shown) [GGlyA] |  |  |  | showed stabilization of factor IX |  |  |
| NC(=O)COC1O[C@H](CO)[C@H](O)[C@H](O)[C@H]1O (stereo partly shown) [GaGlyA] |  | showed a stabilization effect | higher |  | much reduced |  |
| C[C@H](OC1O[C@H](CO)[C@H](O)[C@H](O)[C@H]1O)C(N)=O (stereo partly shown) [GaLA] |  | showed a stabilization effect |  | showed stabilization of factor IX |  |  |
| C[C@H](O[C@H]1O[C@H](CO)[C@@H](O)[C@H](O)[C@@H]1O)C(N)=O [MLA, (2S)-2-O-(α-D-mannopyranosyl)-3-propanamide] |  | showed a stabilization effect |  |  |  |  |
| NC(=O)CO[C@H]1O[C@H](CO)[C@@H](O)[C@H](O)[C@@H]1O [MglyA, 2-O-(α-D-mannopyranosyl)acetamide] |  | showed a stabilization effect |  | showed stabilization of factor IX |  |  |
| CC(CC(N)=O)O[C@@H]1O[C@H](CO)[C@H](O)[C@H](O)[C@H]1O (stereo partly drawn) [b-GaBA, 3-O-(β-D-galactopyranosyl)-3-hydroxybutyramide] |  | showed a stabilization effect | higher |  |  | 22 |
| beta-galactosyl-lactamide [b-GaLA] |  | showed a stabilization effect | higher |  |  |  |
| beta-glucosyl-lactamide [b-GLA] |  | showed a stabilization effect |  |  |  |  |
